Data set [1] has as its target T1, HIV-1 CA CTD/CAI interaction (Human immunodeficiency virus type 1 group M subtype B, UniProt P12493).
T1 construct: DNA encoding the CA CTD was cloned into BamHI-NotI sites of prokaryotic expression vector pGEX-4 T-1; made in house; host or cells: E. coli BL21(DE3)
Nature of the data set: biochemical. It counts as binding. Particulars: for inhibition at 50 µM: read-out: IR (%), inhibitory rate; for IC50: 12-point two-fold dilution 50 to 0.024 μM, n = 3. As for the experimental part: The Discovery Probe FDA-approved Drug Library comprised 1,971 compounds, which were available as stock solutions at 10 mM concentrations in DMSO. Primary screening of these compounds was conducted using a previously established HTRF assay ([Zhang et al., 2019]). Briefly, compound (1 μL), CAI-biotin peptide (2 μL) and GST-CA CTD (2 μL) were dispensed into 384-well microplates. After 30 min incubation at room temperature, 5 μL premixed HTRF agents were added. After an additional 1 h incubation at room temperature, the HTRF signal was acquired by reading the plates in a PerkinElmer Envision Multilabel Plate Reader. Data were analyzed and visualized using GraphPad Prism (version 5.0). […] The quality of the assay was determined by calculating the Z’-factor using the following equation: Z’ = 1 - (3 × SDmax + 3 × SDmin) / |μmax - μmin|, where SDmax and SDmin represent the standard deviations of the positive and negative control measurements, respectively, and μmax and μmin represent the means of the respective positive and negative signal controls ([Zhang et al., 1999]).
We screened a library of 1,971 small molecules, all of which were FDA-approved. Each compound was tested in duplicate at a concentration of 50 μM. […] The remaining compounds were further validated through dose–response analysis using the HTRF assay.
Seven hit compounds were repurchased and subjected to a 12-point two-fold serial dilution, from 50 to 0.024 μM. […] This assay was conducted using three different concentrations of the compounds to determine their binding to monomeric CA.

In another data set the target is HIV-1 CA monomer (E187A) (Human immunodeficiency virus type 1 group M subtype B, UniProt P12493, E319A). Description: biochemical. The data set is classed as binding.
The subject of data set [2] is HIV-1. Nature of the data set: Anti-HIV-1 activity, virus-induced cytopathic effect in C8166 cells. It counts as cell-based. Conditions: for IC50: Human immunodeficiency virus 1, M.O.I 0.03, 72 h, read-out: IC50 against HIV-1 induced CPE. On the procedure:
(§1) Anti-HIV-1 activity was determined by an assay based on virus-induced cytopathic effects (CPE) ([Zhang et al., 2020]). Briefly, C8166 cells were infected with HIV-1 at a multiplicity of infection (M.O.I) of 0.03, with DMSO or diluted SA or SB in 96-well plates. […] The cytotoxicity of the compounds was determined by a tetrazolium dye (MTT) based assay. C8166 cells were co-incubated with diluted SA or SB in 96-well plates. After 3 days, cell viability was determined using MTT, and the 50% cytotoxicity concentration (CC50) was calculated. […] Tenofovir disoproxil fumarate (TDF) was used as a positive control.
(§2) To further evaluate the antiviral effects of SA and SB, we tested them for protecting C8166 cells from HIV-1-induced CPE. The cytotoxic effect of these compounds on C8166 cells was also assessed.

The next data set concerns protease of zika virus. Conditions: ref Coelho et al., 2022; cited from earlier work.
The target of data set [3] is HIV-1 CA monomer (L211A). Description: biochemical. The data set is classed as binding. Conditions: CA L211A compared to WT CA.
The target of data set [4] is HIV-1 CA monomer (L211A) (Human immunodeficiency virus type 1 group M subtype B, UniProt P12493, L343A). Description: biochemical. It counts as binding.
The target in a further data set is HIV-1 CA monomer (L211S) (Human immunodeficiency virus type 1 group M subtype B, UniProt P12493, L343S). Description: biochemical. It counts as binding.
The target in a further data set is T2, HIV-1 CA (Human immunodeficiency virus type 1 group M subtype B, UniProt P12493).
T2 construct: capsid proteins (CA) released by proteolytic processing of Gag; made in house
Description: In vitro assembly of recombinant CA (absorbance at 350 nm). Conditions: 2.5 M NaCl, absorbance at 350 nm over time. It counts as biochemical. On the procedure:
To monitor the in vitro assembly of HIV-1 CA in the presence and absence of hit compounds, changes in sample absorbance over time at 350 nm were measured, as previously described ([Lanman et al., 2002]; [Tang et al., 2003]; [Xu et al., 2018]). To initiate the assay, 1 μL of 5 mM SA or SB was added to 74 μL of buffer composed of a mixture of 5 M NaCl and 200 mM NaH2PO4 (pH 8.0) in a ratio of 2:1 by volume. Subsequently, 25 μL of CA (120 μM) was added to each well and DMSO served as a vehicle control. After a 2-min equilibration period, sample absorbance values were measured at 350 nm every 60 s for 39 min using a Perkin Elmer Envision microplate reader and were corrected by subtracting the absorbance values of a blank sample without sodium chloride. The resulting data were analyzed using GraphPad Prism 5.0.
Under high ionic strength conditions, recombinant CA can spontaneously oligomerize and form open-ended helical tubes consisting of repeating CA hexamers. To investigate the impact of SA and SB on CA tube assembly, we monitored in vitro CA assembly in the presence and absence of SA and SB by measuring changes in light absorbance over time in 2.5 M NaCl. CA (25 μM) for CA. […] We used BLI to determine the KD values of SA and SB in the HIV-1 CA hexamer.
Figure 4 Sennoside A and Sennoside B induced CA multimerization in vitro. (A–B) Light scattering (absorbance at 350 nm) responses showing the rate and extent of in vitro CA (20 μM) assembly in 2.5 M NaCl, in absence of compounds (mock) and the presence of Sennoside A and Sennoside B or CAI. Data are representative of three independent experiments. (C–D) Representative binding sensorgrams depicting the interaction of SA or SB with CA hexamer assessed by bio-layer interferometry (BLI) detection.

The test system of data set [5] is HIV-1. Details: method as in Esposito et al., 2016. Conditions: cell-based assays, ref Esposito et al., 2016; read-out: EC50, anti-HIV-1 activity; cited from earlier work.
For the next data set, the target named is HIV-1 CA hexamer (Human immunodeficiency virus type 1 group M subtype B, UniProt P12493, A146C/E177C/M317A/W316A). Description: BLI binding to CA hexamer.
A further data set addresses RNase H. More on the design: method as in Esposito et al., 2016. Conditions: ref Esposito et al., 2016; cited from earlier work.
A further data set deals with T3, HIV-1 CA monomer (WT) (Human immunodeficiency virus type 1 group M subtype B, UniProt P12493).
T3 construct: capsid proteins (CA) released by proteolytic processing of Gag; made in house
Nature of the data set: biochemical. The data set is classed as binding. Conditions: 7.5–30 μM compound, 1:1 model, mean ± SD.

For another data set, the target named is HIV-1 CA monomer (N183A) (Human immunodeficiency virus type 1 group M subtype B, UniProt P12493, N315A). Description: biochemical. It counts as binding.
In another data set the target is integrase. Details: method as in Esposito et al., 2016. Conditions: ref Esposito et al., 2016; cited from earlier work.
The target of another data set is HIV-1 CA monomer (Y169A) (Human immunodeficiency virus type 1 group M subtype B, UniProt P12493, Y301A). Description: biochemical. The data set is classed as binding.
The target in data set [6] is HIV-1 reverse transcriptase-associated DNA Polymerase. Details: method as in Esposito et al., 2016. Conditions: ref Esposito et al., 2016; cited from earlier work.
In data set [7] the target is T4, CA hexamer/CPSF6 peptide interaction (Human immunodeficiency virus type 1 group M subtype B, UniProt P12493, A146C/E177C/M317A/W316A).
T4 construct: capsid proteins (CA) released by proteolytic processing of Gag; made in house
The data set is classed as binding, HIV-1. As for the experimental part:
As mentioned previously, this pocket is the binding site for two host cell proteins, CPSF6 and NUP153 ([Price et al., 2014]). […] We then performed a BLI-based competition assay. CA hexamer at a concentration of 5 μM, either alone or in combination with high concentrations of SA or SB or PF-74, were used to bind to the SA biosensor loaded with biotinylated CPSF6_313–327 or NUP153_1407–1423.
Biotinylated hexameric CA was firstly loaded to streptavidin-coated biosensors. Then the biosensors were dipped into the plate wells containing CPSF6_308-327 or NUP153_1407–1423 in the absence or presence of PF74 or SA or SB. BLI signals were captured by Octet96 system and data were normalized according to the signal in the absence of compound. Comparisons between data were carried out using the paired t-test by GraphPad Prism 5.0. The double asterisk (^**) and three asterisks (^***) represent p < 0.01 and < 0.001 from the paired t test, respectively.

Another data set is described as follows: Cytotoxicity, MTT assay. Conditions: human, C8166 cells. It counts as cell-based. On the procedure: as §1, §2
The test system of another data set is SARS-CoV-2 main protease. Particulars: cited from earlier work.
Setting [8] is: primary screening, compound at 50 μM, duplicate.
[9] abbreviates: 5 μM CA hexamer, PF74 2.5 μM, SA 225 μM, SB 175 μM.

Where “and” joins values, the source holds several entries; their conditions need not be identical. Equal entries are not always repeated. Where two headings read alike, the source gives them in different places. Where no end group is shown, it is not given here. The star is where a group is joined. Biotin = O=C1N[C@H]2[C@H](CS[C@H]2CCCCC(=O)*)N1

With `O=C(O)CCCC[C@@H]1SC[C@@H]2NC(=O)N[C@@H]21` [Biotin], the inhibition at 50 µM in [1] was 98.8%.

By IC50 is commonly meant the point on the concentration scale where inhibition reaches its midpoint. In turn, `CC[C@H](C)C[C@H](C)CCCCCCCCC(=O)N[C@H]1C[C@@H](O)[C@@H](NCCN)NC(=O)[C@@H]2[C@@H](O)CCN2C(=O)[C@H]([C@H](O)CCN)NC(=O)[C@H]([C@H](O)[C@@H](O)c2ccc(O)cc2)NC(=O)[C@@H]2C[C@@H](O)CN2C(=O)[C@H]([C@@H](C)O)NC1=O` [Caspofungin] registered an IC50 in data set [1] of 29.5 µM. In addition, the inhibition at 50 µM in data set [1] (setting [8]) stood at 94.2%.

Take `CCCCCCCCCCCC1=C(O)C(=O)C=C(O)C1=O` [Embelin]: the inhibition at 50 µM in [1] (setting [8]) amounted to 94.3%.

As a reminder, the Kd is a measure of binding affinity in units of concentration. As a reminder, the EC50 is the concentration giving half of the maximal effect. As a reminder, the CC50 is the concentration that lowers cell viability or growth by half. Consider `O=C(O)c1cc(O)c2c(c1)[C@H]([C@H]1c3cc(C(=O)O)cc(O)c3C(=O)c3c(O[C@@H]4O[C@H](CO)[C@@H](O)[C@H](O)[C@H]4O)cccc31)c1cccc(O[C@@H]3O[C@H](CO)[C@@H](O)[C@H](O)[C@H]3O)c1C2=O` [Sennoside A, sennoside A], for which the Kd at HIV-1 CA monomer (E187A) was 7.69 ± 0.25 µM; on HIV-1 CA monomer (L211A) [4], 3.17 ± 0.09 µM; at HIV-1 CA monomer (L211S), 7 ± 0.18 µM; at HIV-1 CA hexamer it was 1.75 µM and 2.25 µM; at HIV-1 CA monomer (WT), 2.34 µM; on HIV-1 CA monomer (N183A) it was 1.95 ± 0.06 µM. On HIV-1 CA monomer (Y169A), this compound came in with a Kd of 8.8 ± 0.29 µM. The “selectivity index (SI = CC50/EC50)” value with HIV-1 [2] was “less than 10”. Further, the IC50 in the data set with HIV-1 [2] is 2.27 µM; in the data set with protease of zika virus, 0.66 µM; on RNase H it was 1.9 µM; in data set [1] it was 0.18 µM; at integrase, 3.8 µM; in data set [6], 5.3 µM. This compound also came in with a KD fold change at HIV-1 CA monomer (L211A) [3] of 1.35. In addition, the “effect on in vitro CA assembly” value on HIV-1 CA is given as “increased in vitro CA assembly in a dose-dependent manner”. Moreover, the EC50 in the data set with HIV-1 [5] is approximately 9 µM. Besides, the inhibition at 50 µM in [1] (setting [8]) came to 94.7%. Moreover, the “effect on CA hexamer/CPSF6 peptide interaction” value in data set [7] (setting [9]) is recorded as “inhibited”. Moreover, the CC50 at 3 days in the data set “Cytotoxicity, MTT assay” was 22.6 µM.

As for `O=C(O)c1cc(O)c2c(c1)[C@@H]([C@H]1c3cc(C(=O)O)cc(O)c3C(=O)c3c(O[C@@H]4O[C@H](CO)[C@@H](O)[C@H](O)[C@H]4O)cccc31)c1cccc(O[C@@H]3O[C@H](CO)[C@@H](O)[C@H](O)[C@H]3O)c1C2=O` [Sennoside B, sennoside B], the Kd on HIV-1 CA monomer (E187A) was 6.77 ± 0.2 µM; at HIV-1 CA monomer (L211A) [4] it was 2.52 ± 0.07 µM; on HIV-1 CA monomer (L211S), 4.84 ± 0.12 µM; at HIV-1 CA hexamer it was 2.25 µM and 1.75 µM; at HIV-1 CA monomer (WT), 1.62 µM; on HIV-1 CA monomer (N183A) it was 3.96 ± 0.11 µM. Also, at HIV-1 CA monomer (Y169A), the affinity, expressed as Kd, was 2.8 ± 0.07 µM. Moreover, the IC50 was 0.104 µM in the data set with SARS-CoV-2 main protease, 4.73 µM in the data set on HIV-1 [2] and 0.08 µM in data set [1]. Besides, in the data set with HIV-1 [2], the “selectivity index (SI = CC50/EC50)” value was “less than 10”. Besides, the “effect on in vitro CA assembly” value at HIV-1 CA was “increased in vitro CA assembly in a dose-dependent manner”. For the same compound, the inhibition at 50 µM in data set [1] (setting [8]) came out at 95.1%. The “effect on CA hexamer/CPSF6 peptide interaction” value in data set [7] (setting [9]) was “inhibited”. The same compound had a CC50 at 3 days in “Cytotoxicity, MTT assay” of 33.4 µM.

Turning to “CAI: dodecapeptide capsid assembly inhibitor identified by phage display, positive control (ITFEDLLDYYPGGGSK(Biotin))”, in the data set with HIV-1 CA, the “effect on in vitro CA assembly” value was “inhibited CA assembly in vitro”.

For PF-74, the “effect on CA hexamer/CPSF6 peptide interaction” value in [7] is reported as “inhibited, to a degree”.
